Measured values published in patent US12686971B2, “Method of controlling enzymatic activities and tools related thereto” (KEMIRA OYJ, priority 2020, dated 2026).

Assays:
Anaerobic bacteria = assay: Anaerobic bacterial count in pulp; type: cell-based; settings: pasteurized 1 h +80° C., 50 mg/l monochloramine then 10 mg/l daily, 4 d at +40° C., n = 6
Method: (§1) 50 g liner board was re-pulped with process water from a mill using recycled fiber. The final consistency of the pulp was 1.0% and the liner was from a mill using ~50% unbleached kraft pulp and ~50% recycled fiber. This mill uses about 6 kg/ton wet-end starch in the production of the liner. The pulp suspension was divided into 12 bottles. Six of the bottles were put into an incubator with no other treatment. The other 6 bottles were first pasteurized (1 h, +80° C.) in order to inactivate any enzymes present. After that, the bottles were treated with a combination of a biocide (Mixture of DBNPA, bronopol and CMIT/MIT, 100 mg/l as active substance) and either zinc or zinc comprising compound (25 mg/l as Zn^2+). After this, all 12 bottles were kept at +40° C. with shaking for 3 days. At the beginning of the incubation, the pH of the pulp was 6.64, redox+160 mV and conductivity 5.46 mS/cm.
After 3 d pH, ORP, and total and cellulolytic bacterial amounts were measured from each bottle.
50 g liner board (from two different mills: 50% from a mill using ~50% unbleached kraft pulp and ~50% recycled fiber and 50% from a mill using 100% recycled fiber) was re-pulped with process water from a third mill using recycled fiber. The final consistency of the pulp was 1.0%. […]
After 4 d pH, ORP, bacterial amounts and cellulase activity were measured from each bottle.

Aerobic bacteria = assay: Culturable aerobic bacterial count in pulp; type: cell-based
Method: (§2) Short-term and long-term effect of biocides on cellulase activity of process samples was tested with laboratory incubations of recycled fiber (RCF) pulp samples at 40° C.
as §1
50 g liner board (from two different mills: 50% from a mill using ~50% unbleached kraft pulp and ~50% recycled fiber and 50% from a mill using 100% recycled fiber) was re-pulped with process water from a third mill using recycled fiber. The final consistency of the pulp was 1.0%. The pulp suspension was divided into 12 bottles and starch suspension (native potato starch) was added into each bottle, so that the concentration of added starch was 1.5 g/l. Six of the bottles (numbers 1-6) were put into an incubator with no other treatment. The other 6 bottles (numbers 7-12) were first pasteurized (1 h, +80° C.) in order to inactivate any enzymes present. After that, the bottles were treated with a biocide (50 mg/l monochloramine, as active chlorine). […] At the beginning of the incubation, the pH of the pulp was 6.0, redox −46 mV and conductivity 4.8 mS/cm.

ATP = ATP measured from pulp bottles; type: cell-based; settings: after 2 d
Method: 50 g liner board (from two different mills: 50% from a mill using ~50% unbleached kraft pulp and ~50% recycled fiber and 50% from a mill using 100% recycled fiber) was re-pulped with process water from a third mill using recycled fiber. The final consistency of the pulp was 1.0%. The pulp suspension was divided into 12 bottles and starch suspension (native potato starch) was added into each bottle, so that the concentration of added starch was 1.5 g/l. Six of the bottles (numbers 1-6) were put into an incubator with no other treatment. The other 6 bottles (numbers 7-12) were first pasteurized (1 h, +80° C.) in order to inactivate any enzymes present. After that, the bottles were treated with a biocide (50 mg/l monochloramine, as active chlorine). After this, all 12 bottles were kept at +40° C. with shaking for 4 days. During the incubation, 10 mg/l monochloramine was added daily into the bottles 7-12). At the beginning of the incubation, the pH of the pulp was 6.0, redox −46 mV and conductivity 4.8 mS/cm.
After 2 d, ATP was measured from each bottle and was 1000-fold higher in non-treated than treated bottles (average 71 000 pg/ml, st.dev. 3800, vs. average 70, st.dev. 7 pg/ml, respectively).

cellulase = assay: Cellulase activity of RCF pulp samples, Enzchek Cellulase substrate; type: biochemical
Method: Cellulase activity expressed here as “mU/ml” may be obtained using Enzchek Cellulase substrate (Life Technologies, part of Thermo Fisher Scientific), using the manufacturer's instructions and measurement protocol where sodium acetate buffer is adjusted to pH 6.0 and the samples are diluted 1/10 to minimize inhibition and quenching by fibers.
For example, in soil research microbial cellulolytic potential can be tested with agar plate cultivation, but there are also commercially available substrates for measurement of cellulase activity directly from aqueous samples (cellulase production organism cultivation broths/extracts).
According to the supplier, the assay limit of detection is ~110% of the signal for blank (buffer instead of sample). In addition, standard curve was measured as recommended with Trichoderma mold cellulase (at recommended pH 5.0), but in addition also with Bacillus amyloliquefaciens cellulase (Megazyme; at recommended pH 6.0). Both gave near-linear standard curve with good sensitivity.
as §2

[1] = RCF pulp, MCA Day 1 50 mg/l, Day 2 and 3 10 mg/l, Days 4-8 no addition
[2] = pasteurized 1 h +80° C., 50 mg/l monochloramine then 10 mg/l daily, 4 d at +40° C., n = 6

## NCl [MCA, monochloramine]
Anaerobic bacteria
  Anaerobic bacteria, Average: 970 cfu/ml
Aerobic bacteria; 3-day experiment, daily dosages of MCA
  reduction of total CFUs: 5 orders of magnitude
Aerobic bacteria; RCF pulp, MCA Day 1 50 mg/l, Day 2 and 3 10 mg/l
  Aerobic bacteria, 3 d, cfu/ml: 6000 cfu/ml
Aerobic bacteria; [1]
  Aerobic bacteria, 6 d, cfu/ml: 30 000 000 cfu/ml
Aerobic bacteria; [2]
  Aerobic bacteria, Average: 8 700 cfu, ml
ATP
  ATP higher in non-treated than treated bottles: 1000 fold
ATP; treated bottles, 50 mg/l monochloramine then 10 mg/l daily, +40° C.
  ATP, average: 70 pg/mL
cellulase; 5 d after the last biocide dosage, corresponding to 134% of the blank
  cellulase activity in process sample: ~ 0.2 mU/ml
cellulase; [1]
  Cellulase activity at 7 d, % compared to blank: 134%
cellulase; [2]
  Cellulase activity, Average: 0.44 mU/ml
